# Laboratory results from PubChem BioAssay (NCI).
#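 Tested at 5 concentrations; 48 h exposure; 96-well plates; endpoints linearly interpolated, else capped at highest concentration. At the TGI there is no net growth.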
# Columns and labels:
# Test in all cases: DTP human tumour cell line panel, 48 h
# [1] = system: SR leukemia
# [2] = system: HS 578T breast
# [3] = system: SW-620 colon
# [4] = system: SF-539 CNS
# [5] = system: KM12 colon
# [6] = system: CAKI-1 renal
# [7] = system: OVCAR-3 ovarian
# [8] = system: UACC-62 melanoma
# [9] = system: SK-MEL-28 melanoma
# [10] = system: MDA-MB-231 breast
# [11] = system: SN12C renal
# [12] = system: HOP-92 NSCLC
# [13] = system: MOLT-4 leukemia
# [14] = system: EKVX NSCLC
# [15] = system: SF-295 CNS
# [16] = system: NCI-H23 lung
# [17] = system: NCI-H460 lung
# [18] = system: COLO 205 colon
# [19] = system: HOP-62 NSCLC
# [20] = system: MDA-MB-435
# [21] = system: A549 NSCLC
# [22] = system: RPMI-8226 leukemia
# [23] = system: OVCAR-4 ovarian
# [24] = system: BT-549 breast
# [25] = system: K-562 leukemia
# [26] = system: ACHN renal
# [27] = system: HCC-2998 colon
# [28] = system: MCF7 breast
# [29] = system: LOX IMVI melanoma
# [30] = system: NCI-H226 lung
# [31] = system: UO-31 renal
# [32] = system: CCRF-CEM leukemia
# [33] = system: OVCAR-5 ovarian
# [34] = system: NCI-H522 lung
# [35] = system: RXF 393 renal
# [36] = system: MDA-N
# [37] = system: DU-145 prostate
# [38] = system: HCT-116 colon
# [39] = system: HL-60(TB) leukemia
# [40] = system: 786-0 renal
# [41] = system: M14 melanoma
# [42] = system: OVCAR-8 ovarian
# [43] = system: TK-10 renal
# [44] = system: SNB-75 CNS
# [45] = system: SK-MEL-5 melanoma
# [46] = system: SNB-19 CNS
# [47] = system: MALME-3M melanoma
# [48] = system: PC-3 prostate
# [49] = system: UACC-257 melanoma
# [50] = system: NCI/ADR-RES ovarian
# [51] = system: A498 renal
# [52] = system: HCT-15 colon
# [53] = system: SF-268 CNS
# [54] = system: SK-OV-3 ovarian
# [55] = system: U251 CNS
# [56] = system: IGROV1 ovarian
# [57] = system: SK-MEL-2 melanoma
# [58] = system: HT29 colon
# [59] = system: T-47D breast
smiles,measurement,setting,value
CCCCCCCCCCCCCCCCCc1cccc(OCOCCOC)c1C(=O)O,TGI,[1],50 µM
same,TGI,[2],42.6 µM
same,TGI,[3],44.3 µM
same,TGI,[4],30.1 µM
same,TGI,[5],34.1 µM
same,TGI,[6],35.1 µM
same,TGI,[7],36.9 µM
same,TGI,[8],32.4 µM
same,TGI,[9],38.2 µM
same,TGI,[10],37.4 µM
same,TGI,[11],46.6 µM
same,TGI,[12],35.8 µM
same,TGI,[13],44.1 µM
same,TGI,[14],38.7 µM
same,TGI,[15],35.5 µM
same,TGI,[16],30.1 µM
same,TGI,[17],41 µM
same,TGI,[18],39.7 µM
same,TGI,[19],38.9 µM
same,TGI,[20],40.9 µM
same,TGI,[21],42.1 µM
same,TGI,[22],> 72.7 µM
same,TGI,[23],34.8 µM
same,TGI,[24],31.6 µM
same,TGI,[25],> 83 µM
same,TGI,[26],35.2 µM
same,TGI,[27],36 µM
same,TGI,[28],43.2 µM
same,TGI,[29],61.8 µM
same,TGI,[30],32.3 µM
same,TGI,[31],31.7 µM
same,TGI,[32],> 77.5 µM
same,TGI,[33],35 µM
same,TGI,[34],30 µM
same,TGI,[35],37.7 µM
same,TGI,[36],38.8 µM
same,TGI,[37],33.2 µM
same,TGI,[38],39.1 µM
same,TGI,[39],50.8 µM
same,TGI,[40],35.2 µM
same,TGI,[41],35.9 µM
same,TGI,[42],31.7 µM
same,TGI,[43],34.3 µM
same,TGI,[44],31.1 µM
same,TGI,[45],39.1 µM
same,TGI,[46],40.6 µM
same,TGI,[47],22.2 µM
same,TGI,[48],34.4 µM
same,TGI,[49],36.6 µM
same,TGI,[50],28.6 µM
same,TGI,[51],32.2 µM
same,TGI,[52],41.2 µM
same,TGI,[53],34.5 µM
same,TGI,[54],28 µM
same,TGI,[55],41.6 µM
same,TGI,[56],33.5 µM
same,TGI,[57],39.2 µM
same,TGI,[58],35.7 µM
same,TGI,[59],35.2 µM
CC(=O)C(=[N+]=[N-])C(=O)N1CCOC1=O,TGI,[1],> 10 µM
same,TGI,[2],> 10 µM
same,TGI,[3],> 10 µM
same,TGI,[4],> 10 µM
same,TGI,[5],> 10 µM
same,TGI,[6],> 10 µM
same,TGI,[7],> 10 µM
same,TGI,[8],> 10 µM
same,TGI,[9],> 10 µM
same,TGI,[10],> 10 µM
same,TGI,[11],> 10 µM
same,TGI,[13],> 10 µM
same,TGI,[14],> 10 µM
same,TGI,[15],> 10 µM
same,TGI,[16],> 10 µM
same,TGI,[17],> 10 µM
same,TGI,[18],> 10 µM
same,TGI,[19],> 10 µM
same,TGI,[20],> 10 µM
same,TGI,[21],> 10 µM
same,TGI,[22],> 10 µM
same,TGI,[23],> 10 µM
same,TGI,[24],> 10 µM
same,TGI,[25],> 10 µM
same,TGI,[26],> 10 µM
same,TGI,[27],> 10 µM
same,TGI,[28],> 10 µM
same,TGI,[29],> 10 µM
same,TGI,[30],> 10 µM
same,TGI,[31],> 10 µM
same,TGI,[32],> 10 µM
same,TGI,[33],> 10 µM
same,TGI,[35],> 10 µM
same,TGI,[36],> 10 µM
same,TGI,[37],> 10 µM
same,TGI,[38],> 10 µM
same,TGI,[39],> 10 µM
same,TGI,[40],> 10 µM
same,TGI,[41],> 10 µM
same,TGI,[42],> 10 µM
same,TGI,[43],> 10 µM
same,TGI,[44],> 10 µM
same,TGI,[45],> 10 µM
same,TGI,[46],> 10 µM
same,TGI,[47],> 10 µM
same,TGI,[48],> 10 µM
same,TGI,[49],> 10 µM
same,TGI,[50],> 10 µM
same,TGI,[51],> 10 µM
same,TGI,[52],> 10 µM
same,TGI,[53],> 10 µM
same,TGI,[54],> 10 µM
same,TGI,[55],> 10 µM
same,TGI,[56],> 10 µM
same,TGI,[57],> 10 µM
same,TGI,[58],> 10 µM
same,TGI,[59],> 10 µM
